# Read-outs that look alike come from different tables or passages of the source.
# Experiments:
# HSV-2 [1] = test: In vitro HSV-2 tests using published formulations of 1-docosanol with surfactants; format: cell-based, Herpes simplex virus type 2; conditions: published formulations with various surfactants
# Description: The alcohol intermediate, cis,cis,cis,cis,cis,cis-4,7,10,13,16,19-docosahexaenoic-1-ol obtained by reduction of DHA in the above series has the same chain-length as 1-docasonol, but has six conjugated-cis-double bonds for a stiff, elongated backbone, in contrast to a floppy backbone in saturated 1-docasanol.
# [2] = cited from earlier work
# [3] = test system: cold sores caused by the herpes simplex virus; conditions: OTC cream; cited from earlier work
# HSV-1 = test: CellTiter-Glo (Cytopathic effect/Toxicity) antiviral assay, U of Alabama / NIH; format: cell-based, Herpes simplex virus type 1
# Description: (§1) General Outline of in vitro biology Study: The overall goal of this study was to perform a preliminary evaluation of gross toxicity as well as antiviral effectiveness against HSV-1 and HSV-2, and VZV virus of several pharmaceutical preparations. The HSV-1 and HSV-2 antiviral activity in an in vitro infection system was studied, at the Louisiana State University, Health Sciences System, in New Orleans, and all three above at the University of Alabama, NIAID sponsored laboratories.
# HSV-2 [4] = test: as above; format: cell-based, Herpes simplex virus type 2
# Description: as §1
# HSV-1 McKrae = test: McKrae viral yield reduction assay relative to mock treated controls, LSU; format: cell-based, Herpes simplex virus type 1
# Description: as §1
# (§2) The yield reduction assay (YRA) was used in determining antiviral activity of test compounds such as JIVA Compounds, controls and standards. The virus yield reduction assay is a powerful technique for evaluating the efficacy of antiviral compounds. Monolayer cultures of mammalian cells were grown in 96-well microliter tissue culture plates and infected with virus. Test compounds were added and serially diluted directly with the plates. Following a cycle of virus replication, culture lysates were made and serially diluted in a separate set of uninfected cultures grown in microliter plates. The cultures were incubated, plaques were enumerated in wells containing […] plaques, and virus titers were calculated.
# HSV-2 [5] = test: Viral yield reduction assay relative to mock treated controls, LSU; format: cell-based, Herpes simplex virus type 2
# Description: as §1, §2
# [6] = Gross visible toxicity (CC50), 48 hour continuous treatment, LSU; format: cell-based; conditions: African green monkey, Vero cell monolayers, tested at L (LSU-HSC)
# Description: as §1
# [7] = CellTiter-Glo toxicity (CC50), U of Alabama / NIH
# HSV-2 [8] = test: Viral yield reduction assay (YRA), Cincinnati Children's Hospital Medical Center; format: cell-based, Herpes simplex virus type 2
# Protocol: as §2
# (§3) Another advantage was noted of thiazolidinedione compounds in Formula (I) where R is H, and R1 is an omega-3 PUFA derivative derived from DHA, EPA or ALA were provided to the Cincinnati Children's Hospital Medical Center, for in vitro HSV-2 antiviral activity by the viral yield reduction assay method, (YRA). […] For the DHA derived (JIVA-004), a ^˜44% reduction in virus yield was detected at 0.1 mM, and 22% reduction was detected at 0.01 mM. […] The more water soluble sodium salt of JIVA-004, in the YRA method, was toxic at the highest concentrations tested (10 mM to 7.5 mM).
# healthy cells = format: cell-based
# Protocol: as §3
# HSV-2 [9] = test: Plaque reduction and virus yield reduction assay (FIGS. 1-6); format: cell-based, Herpes simplex virus type 2; design: Mean virus titer: unit not given here
# Protocol: as §2
# (§4) The concentrations were done in duplicate ranging from 1 mM to 10 mM and the average value is plotted for each concentration. At 2 days post infection the number of plaques were counted. The next day, the wells were collected (media and cells) and titered in a plaque assay.
# VZV = test: CellTiter-Glo (Cytopathic effect/Toxicity) antiviral assay, U of Alabama / NIH; format: cell-based, Varicella zoster virus; conditions: for activity against the Varicella-Zoster virus: primary assays at the NIH
# Description: as §1
# Vero cell monolayers = test: Gross visible toxicity (CC50), 48 hour continuous treatment, LSU; format: cell-based; conditions: tested at L (LSU-HSC)
# Description: as §1
# cells = test: Toxicity to the cells seen in the plaque reduction assay (FIG. 1); format: cell-based
# Protocol: as §4
# FIG. 1: Both Compound 2 (JIVA-0042) and Compound 3 (JIVA-005) appeared to show toxicity at 10 mM, so even if the graphs show almost 100% reduction at this concentration, it is due to toxicity, perhaps cytostatic inhibition of the cells and thus very few or small plaques were observed. However, by 5 mM of Compound 2 (JIVA-0042), the cells look good (no toxicity) and >95% plaque reduction for Compound 2 and a 50% reduction for Compound 3 (JIVA-005), with the plaques still smaller than the control no drug plaques.
# Aqueous solubility = format: physicochemical; conditions: water; at 3° C.
# [10] = Human alphaherpesvirus 1, HSV-1, tested at A (U of Alabama), read-out: EC50
# [11] = Human alphaherpesvirus 2, HSV-2, tested at A (U of Alabama), read-out: EC50
# [12] = Human alphaherpesvirus 1, HSV-1, tested at L (LSU-HSC), read-out: EC50
# [13] = Human alphaherpesvirus 2, HSV-2, tested at L (LSU-HSC), read-out: EC50
# [14] = CC50, HSV-1 line, tested at A (U of Alabama)
# [15] = CC50, HSV-2 line, tested at A (U of Alabama)
# [16] = CC50, VZV line, tested at A (U of Alabama)
# [17] = VZV, tested at A (U of Alabama), read-out: EC50
# [18] = HSV-1, tested at L (LSU-HSC), read-out: EC50
# [19] = HSV-2, tested at L (LSU-HSC), read-out: EC50
# [20] = 10 mM, said to be due to toxicity
# [21] = VZV line, tested at A (U of Alabama)
smiles,measurement,setting,value
"CCCCCCCCCCCCCCCCCCCCCCO [1-docosanol, 1-Docosanol]",antiviral activity,HSV-2 [1],ineffective
same,aqueous solubility,[2],near zero
same,mean time of healing,[3],4.1 days
"N=C(N)SC(C(=O)O)c1ccccc1 (centres unmarked) [JIVA-0045, RS-2-[Amino(imino)methylsulfenyl]-2-phenylacetic acid]",EC50,HSV-1; [10],> 150 µM
same,EC50,HSV-2 [4]; [11],> 150 µM
same,EC50,HSV-1 McKrae; [12],238 µM
same,EC50,HSV-2 [5]; [13],~750 µM
same,CC50 at 48 h,[6]; HSV-1 line,3600 µM
same,CC50 at 48 h,[6]; HSV-2 line,3600 µM
same,melting point,,230 °C (dec.)
same,CC50,[7]; [14],> 150 µM
same,CC50,[7]; [15],> 150 µM
"CC/C=C\C/C=C\C/C=C\C/C=C\C/C=C\C/C=C\CCCC1SC(=O)NC1=O (centres unmarked) [JIVA-004, RS-5-((4Z,7Z,10Z,13Z,16Z,19Z)docosa-4,7,10,13,16,19-hexaen-1-yl)thiazolidine-2,4-dione]",reduction in virus yield,HSV-2 [8]; 0.01 mM,22%
same,reduction in virus yield,HSV-2 [8]; 0.1 mM,~44%
same,conservative estimated toxicity index CC50,healthy cells,300 µM
"CN(C)C(=N)NC(=N)N.Cl [Met.HCl, 1,1-dimethylbiguanide hydrochloride, reference compound]",Mean virus titer,HSV-2 [9]; 1 mM,5.98
same,Mean virus titer,HSV-2 [9]; 2.5 mM,6.05
same,Mean virus titer,HSV-2 [9]; 5 mM,5.76
same,Mean virus titer,HSV-2 [9]; 7.5 mM,4.97
same,Mean virus titer,HSV-2 [9]; 10 mM,4.32
same,EC50,"HSV-2 [9]; Human alphaherpesvirus 2, read-out: estimated EC50",~5000 µM
"N=C(N)SC(F)C(=O)O (centres unmarked) [JIVA-0043, RS-(Carbamimidoylsulfanyl)(fluoro)acetic acid]",EC50,"VZV; Human alphaherpesvirus 3, VZV, tested at A (U of Alabama), read-out: EC50",< 0.05 µM
same,activity against the Varicella-Zoster virus,VZV,highly active
same,EC50,HSV-1; [10],> 150 µM
same,EC50,HSV-2 [4]; [11],> 150 µM
same,EC50,HSV-1 McKrae; [12],> 150 µM
same,EC50,HSV-2 [5]; [13],> 150 µM
same,CC50 at 48 h,[6]; HSV-1 line,~1000 µM
same,CC50 at 48 h,[6]; HSV-2 line,> 1000 µM
same,melting point,,178 °C
same,CC50,[7]; [14],> 150 µM
same,CC50,[7]; [15],> 150 µM
same,CC50,[7]; [16],> 150 µM
CN(C)C(=N)NC(=N)N.O=C1CSC(=O)N1 [JIVA-005],EC50,VZV; [17],0.09 µM
same,activity against the Varicella-Zoster virus,VZV,highly active
same,EC50,"HSV-1; HSV-1, tested at A (U of Alabama), read-out: EC50",> 150 µM
same,EC50,"HSV-2 [4]; HSV-2, tested at A (U of Alabama), read-out: EC50",> 150 µM
same,EC50,HSV-1 McKrae; [18],~625 µM
same,EC50,HSV-2 [5]; [19],~700 µM
same,CC50,Vero cell monolayers; HSV-2 line,> 10000 µM
same,Mean virus titer,HSV-2 [9]; 1 mM,6.24
same,Mean virus titer,HSV-2 [9]; 2.5 mM,5.90
same,reduction in virus yield,HSV-2 [9]; 2.5 mM,very little reduction
same,Mean virus titer,HSV-2 [9]; 5 mM,4.92
same,plaque reduction,HSV-2 [9]; 5 mM,50%
same,Mean virus titer,HSV-2 [9]; 7.5 mM,3.86
same,Mean virus titer,HSV-2 [9]; 10 mM,2.87
same,plaque reduction,HSV-2 [9]; [20],~100%
same,EC50,"HSV-2 [9]; Excel, best fit line (FIGS. 4 and 5), read-out: estimated EC50",~4000 µM
same,EC50,"HSV-2 [9]; Prism program (FIG. 6), read-out: calculated EC50",5040 µM
same,toxicity,cells; 10 mM,toxicity
same,CC50,"[7]; HSV-1 line, tested at A (U of Alabama)",> 150 µM
same,CC50,"[7]; HSV-2 line, tested at A (U of Alabama)",> 150 µM
same,CC50,[7]; [21],> 150 µM
"CN(C)C(=N)NC(=N)N.N=C1NC(=O)CS1 [JIVA-0049, Pseudothiohydantain Metforminate]",EC50,VZV; [17],< 0.05 µM
same,activity against the Varicella-Zoster virus,VZV,highly active
same,EC50,"HSV-1; HSV-1, tested at N (NIH), read-out: EC50",> 300 µM
same,CC50,"[7]; HSV-1 line, tested at N (NIH)",> 300 µM
same,CC50,[7]; [21],≥ 150 µM
"CC/C=C\C/C=C\C/C=C\C/C=C\C/C=C\C/C=C\CCCO [DHA derived primary alcohol, cis,cis,cis,cis,cis,cis-4,7,10,13,16,19-docosahexaenoic-1-ol]",antiviral activity,HSV-2 [1],ineffective
"NC1=NC(=O)CS1 [JIVA-0048, Pseudothiohydantoin]",EC50,HSV-1 McKrae; [18],296 µM
same,EC50,HSV-2 [5]; [19],76 µM
same,CC50,Vero cell monolayers; HSV-1 line,19400 µM
same,CC50,Vero cell monolayers; HSV-2 line,19400 µM
"O=C1CSC(=O)N1 [JIVA-0042, 2,4-Thiazolidinedione]",EC50,VZV; Human alphaherpesvirus 3,> 30 µM
same,EC50,HSV-1; Human alphaherpesvirus 1,> 150 µM
same,EC50,HSV-2 [4]; Human alphaherpesvirus 2,> 150 µM
same,EC50,HSV-1 McKrae; Human alphaherpesvirus 1,~625 µM
same,EC50,HSV-2 [5]; Human alphaherpesvirus 2,1880 µM
same,CC50 at 48 h,[6]; HSV-1 line,> 14000 µM
same,CC50 at 48 h,[6]; HSV-2 line,> 14000 µM
same,antiviral effect,HSV-2 [9]; 1 mM,no antiviral effect
same,reduction in virus yield,HSV-2 [9]; 2.5 mM,30%
same,plaque reduction,HSV-2 [9]; 5 mM,> 95%
same,plaque reduction,HSV-2 [9]; [20],~100%
same,EC50,"HSV-2 [9]; Human alphaherpesvirus 2, read-out: calculated EC50",2930 µM
same,inhibition at 5000 µM,"HSV-2 [9]; Human alphaherpesvirus 2, read-out: inhibition that can be contributed to Compound 2 activity",~45%
same,toxicity,cells; 5 mM,no toxicity
same,toxicity,cells; 10 mM,toxicity
same,solubility,Aqueous solubility,30 mg/mL
same,CC50,[7]; [14],> 150 µM
same,CC50,[7]; [15],> 150 µM
same,CC50,[7]; [16],80 µM
"CC1SC(=N)NC1=O (centres unmarked) [JIVA-0044, RS-2-Imino-5-methylthiazolidine-4-one]",EC50,HSV-1; [10],> 150 µM
same,EC50,HSV-2 [4]; [11],> 150 µM
same,EC50,HSV-1 McKrae; [12],1420 µM
same,EC50,HSV-2 [5]; [13],1400 µM
same,CC50 at 48 h,[6]; HSV-1 line,> 39000 µM
same,CC50 at 48 h,[6]; HSV-2 line,> 39000 µM
same,melting point,,224 to 228 °C (dec.)
same,CC50,[7]; [14],> 150 µM
same,CC50,[7]; [15],> 150 µM
"N=C1NC(=O)C(c2ccccc2Cl)S1 (centres unmarked) [JIVA-0046, RS-2-Imino-5-(2′-chlorophenyl) thiazolidine-4-one]",EC50,HSV-1; [10],> 150 µM
same,EC50,HSV-2 [4]; [11],> 150 µM
same,EC50,HSV-1 McKrae; [12],2000 µM
same,EC50,HSV-2 [5]; [13],~1000 µM
same,CC50 at 48 h,[6]; HSV-1 line,~1000 µM
same,CC50 at 48 h,[6]; HSV-2 line,~1000 µM
same,melting point,,244 to 246 °C
same,CC50,[7]; [14],> 150 µM
same,CC50,[7]; [15],> 150 µM

# From US10646477B1, “5-substituted 2,4-thiazolidinediones (thiohydantoins), pseudothiohydantoins, and propseudothiohydantoins for use as antiviral agents” (Jiva Pharma, Inc., priority 2015, dated 2020)
